In US20260241048A1, “PSMA-TARGETED RADIOPHARMACEUTICALS AND DNA DAMAGE RESPONSE INHIBITOR COMBINATION THERAPY” (FUSION PHARMACEUTICALS INC., priority 2023, published 2026):

Tests used:
[1] = system: PC3-PSMA xenograft; experiment: In vivo combination study of ^225Ac-Compound I and olaparib in PC3-PSMA tumor xenograft bearing mouse model
Protocol: An in vivo combination study was conducted with ^225Ac-Compound I and olaparib using a PSMA overexpressing PC3 (PC3-PSMA, prostate cancer) tumor xenograft bearing mouse model. Groups of mice (n=5/group) were treated with ^225Ac-Compound I administered as a single dose (intravenous), at a dose sub-optimal for monotherapeutic efficacy (1.23 MBq/kg or 1 μCi, based on 30 g mice). Additional groups of mice (n=5/group) were dosed daily with olaparib (oral gavage) using a dose range of 25, 50, or 100 mg/kg for 28 consecutive days in combination with ^225Ac-Compound I. Olaparib dosing started on the same day that ^225Ac-Compound I was dosed (FIG. 1). Olaparib monotherapy and vehicle control groups (n=5/group) were included as controls. Tumor measurements were taken 2-3 times per week and used to calculate tumor volume. Study duration was for 50 days after initial therapeutic administration.
Tumor growth in study animals was tracked over time and expressed as Relative Tumor Volume (RTV; tumor volume on day X divided by initial tumor volume on day 0) (FIGS. 2A-2C). Single agent olaparib monotherapy was found ineffective at all dose levels tested.

[2] = system: PC3-PSMA xenograft; experiment: In vivo combination study of ^225Ac-Compound I and elimusertib in PC3-PSMA tumor xenograft bearing mouse model; conditions: 1.23 MBq/kg [^225Ac]-Compound I single i.v. dose combined with elimusertib 5, 20 and 40 mg/kg; compared to either monotherapy or vehicle
Protocol: Groups of mice (n=5/group) were treated with ^225Ac-Compound I, administered as a single dose (intravenous), at a dose sub-optimal for monotherapeutic efficacy (1.23 MBq/kg or 1 μCi, based on 30 g mice). […] Tumor measurements were taken 2-3 times per week and used to calculate tumor volume. Study duration was 61 days after initial therapeutic administration.
Tumor growth was tracked over time and expressed as Relative Tumor Volume (RTV; tumor volume on day X divided by initial tumor volume on day 0) (FIGS. 4A-4C).

## O=C(O)CC[C@H](NC(=O)N[C@@H](CCCCNC(=O)CCCCCCC(=O)NCCCC[C@@H](NC(=O)[C@@H](Cc1ccccc1)NC(=O)[C@@H](Cc1ccc(O)c(I)c1)NC(=O)CCC(C(=O)O)N1CCN(CC(=O)O)CCN(CC(=O)O)CCN(CC(=O)O)CC1)C(=O)O)C(=O)O)C(=O)O (stereo partly drawn) [[^225Ac]-Compound I, metal not drawn]
[1]; 1.23 MBq/kg [^225Ac]-Compound I single i.v. dose combined with olaparib 25, 50 or 100 mg/kg daily, compared to either monotherapy or vehicle
  Tumor growth inhibition (Relative Tumor Volume): enhanced tumor growth inhibition
[2]
  Tumor growth inhibition (Relative Tumor Volume): enhanced tumor growth inhibition

## O=C(c1cc(Cc2n[nH]c(=O)c3ccccc23)ccc1F)N1CCN(C(=O)C2CC2)CC1 [olaparib, reference compound]
[1]; single agent olaparib monotherapy, oral gavage daily for 28 days, all dose levels tested (25, 50, 100 mg/kg)
  Tumor growth (Relative Tumor Volume): ineffective
